pEC50: −log10 of the molar value.
Assays:
Format in all cases: cell-based
[1] = Cellular toxicity assay in CEM cells; settings: human, CEM lymphoblastoid cells, read-out: Cytotoxicity, CC50, CEM
Method: (§1) The toxicity of the compounds was assessed in Vero, human PBM, CEM (human lymphoblastoid), MT-2, and HepG2 cells, as described previously (see Schinazi R. F., Sommadossi J.-P., Saalmann V., Cannon D. L., Xie M.-Y., Hart G. C., Smith G. A. & Hahn E. F. Antimicrob. Agents Chemother. 1990, 34, 1061-67). Cycloheximide was included as positive cytotoxic control, and untreated cells exposed to solvent were included as negative controls. The cytotoxicity CC50 was obtained from the concentration-response curve using the median effective method described previously (see Chou T.-C. & Talalay P. Adv. Enzyme Regul. 1984, 22, 27-55; Belen'kii M. S. & Schinazi R. F. Antiviral Res. 1994, 25, 1-11).

[2] = system: HCoV (OC43); experiment: In vitro assay for HCoV (OC43), virus yield reduction in Huh7 cells; settings: Betacoronavirus 1, OC43, Huh-7, 10 μM
From the text: In order to determine the potential effect of each selected compound against in vitro replication of SARS-CoV-2 in Vero cells or HCoV (OC43) in Huh7 cells, a confluent cell monolayer in a 96-wells cell culture microplate can be infected at a multiplicity of infection (MOI) of 0.1 and treated with a maximum non-toxic concentration (MNTC) of each compound. To assess the antiviral activity, a virus yield reduction assay using specific qRT-PCR for each virus can be performed.
Dose-Dependent Antiviral Assay. The antiviral effect of each compound selected through the antiviral evaluation assay can be further confirmed by virus yield reduction assay using the optimized qRT-PCR by measuring the RNA copy number for each virus in the supernatant of treated-infected cells. A positive control, such as remdesivir, can be used for each assay.
Statistical analysis. The half-maximal effective concentration (EC50) and the concentration with 90% of inhibitory effect (EC90) can be calculated using GraphPad PRISM for Windows, version 5 (GraphPad Software Inc., San Diego, CA, 2005) or the Chou and Talalay Method.
These methods were used to evaluate certain of the compounds described herein.

[3] = system: SARS-CoV-2; experiment: microbe, parasite or virus in culture; settings: Severe acute respiratory syndrome coronavirus 2; 10 μM, Vero cells; read-out: SARS-CoV-2 Inhibition at 10 μM (%)
[4] = Cellular toxicity assay in Vero cells; settings: African green monkey, read-out: Cytotoxicity, CC50, VERO
Method: as §1

[5] = Cellular toxicity assay in Huh7 cells; settings: human, read-out: Cytotoxicity, CC50, Huh7
[6] = system: Enterovirus EV-71 (BrCr strain); experiment: Anti-enterovirus activity, EV-71 virus yield reduction (qRT-PCR) in RD cells; settings: 0.1 MOI, 2 days post-treatment
Method: Compounds are tested for cytotoxicity using a MTS (3-(4,5-dimethylthiazol-2-yl)-5-(3-carboxymethoxyphenyl)-2-(4-sulfophenyl)-2H-tetrazolium) method and the CC50 (IC50) values (cytotoxic concentrations of drug required to reduce cell viability by 50%) are determined for each test compound in human rhabdomyosarcoma (RD) cell line. In addition, the maximum non-toxic concentrations (MNTC) are also determined for each compound. To avoid potential drug toxicity that would interfere with viral cytopathic effect (CPE), compounds are evaluated at nontoxic concentrations. The resultant inhibitory effect of each test compound is calculated as a percentage of decrease in EV-71 CPE. Briefly, a monolayer of RD cells is prepared in a 96-well plates. The cells are then infected with 1 MOI of EV-71 (BrCr strain) followed by treatment with a single non-toxic dose of each compound in triplicate. The vehicle control wells are treated with 0.1% DMSO diluted in the working media. The plate is then incubated for 48 h at which time the virus-control wells produced detectable CPE. To determine the probable CPE inhibitory effect of test compounds, an MTS assay is performed and effective compounds are chosen for further studies to identify the potency of the compounds and their concentration-dependent manner. The dose-response antiviral activity of each compound is determined by a virus yield reduction assay method. Briefly, confluent monolayers of RD cells in 96-wells microplate are infected with 0.1 MOI of EV-71 followed by treatment with compounds. Effective compounds are further quantified and confirmed with a virus-yield-reduction assay using an optimized in house qRT-PCR to determine the EV-71 RNA copy number after 2 days post-treatment from collected supernatants. qRT-PCR is performed using the EV-71 specific probe/primer mix and qScript-Tough master mix (Quantibio, USA). Quantitative PCR measurement was performed using StepOnePlus real time PCR system ([…]) according to manufacturer's protocol. The median effective concentration (EC50) and the concentration with 90% of inhibitory effect (EC90) are calculated using GraphPad PRISM for Windows, version 5 (GraphPad Software Inc., San Diego, CA, 2005) as the means±standard deviation (SD) of the mean from triplicate assay from three independent experiments.

[7] = system: human rhabdomyosarcoma (RD) cell line; experiment: Cytotoxicity (MTS) in RD cells
Method: Compounds are tested for cytotoxicity using a MTS (3-(4,5-dimethylthiazol-2-yl)-5-(3-carboxymethoxyphenyl)-2-(4-sulfophenyl)-2H-tetrazolium) method and the CC50 (IC50) values (cytotoxic concentrations of drug required to reduce cell viability by 50%) are determined for each test compound in human rhabdomyosarcoma (RD) cell line. In addition, the maximum non-toxic concentrations (MNTC) are also determined for each compound. To avoid potential drug toxicity that would interfere with viral cytopathic effect (CPE), compounds are evaluated at nontoxic concentrations. The resultant inhibitory effect of each test compound is calculated as a percentage of decrease in EV-71 CPE. Briefly, a monolayer of RD cells is prepared in a 96-well plates. The cells are then infected with 1 MOI of EV-71 (BrCr strain) followed by treatment with a single non-toxic dose of each compound in triplicate. The vehicle control wells are treated with 0.1% DMSO diluted in the working media. […] The dose-response antiviral activity of each compound is determined by a virus yield reduction assay method. Briefly, confluent monolayers of RD cells in 96-wells microplate are infected with 0.1 MOI of EV-71 followed by treatment with compounds. […] Quantitative PCR measurement was performed using StepOnePlus real time PCR system ([…]) according to manufacturer's protocol.

| Structure (SMILES) | CC50 [1] | inhibition at 10 µM [2] | inhibition at 10 µM [3] | CC50 [4] | CC50 [5] | pEC50 ([6]; read-out: EC50 against Enterovirus EV-71 (BrCr strain)) | EC90 ([6]; read-out: EC90 against Enterovirus EV-71 (BrCr strain)) | CC50 [7] |
| --- | --- | --- | --- | --- | --- | --- | --- | --- |
| CC(C)C[C@H](NC(=O)[C@H](Cc1cccc2ccccc12)NC(=O)OCc1ccccc1)C(=O)N[C@@H](C[C@@H]1CCCNC1=O)C(O)C(F)(F)F (stereo partly drawn) [Compound 38, Benzyl ((2S)-1-(((2S)-4-methyl-1-oxo-1-(((2S)-4,4,4-trifluoro-3-hydroxy-1-((S)-2-oxopiperidin-3-yl)butan-2-yl)amino)pentan-2-yl)amino)-3-(naphthalen-1-yl)-1-oxopropan-2-yl)carbamate] | 6 µM | 95% | 85.1% |  |  |  |  |  |
| CC(C)C[C@H](NC(=O)[C@H](Cc1ccc(F)cc1)NC(=O)OCc1ccccc1)C(=O)N[C@H](C=O)C[C@@H]1CCCNC1=O [Compound 35, Benzyl ((S)-3-(4-fluorophenyl)-1-(((S)-4-methyl-1-oxo-1-(((S)-1-oxo-3-((S)-2-oxopiperidin-3-yl)propan-2-yl)amino)pentan-2-yl)amino)-1-oxopropan-2-yl)carbamate] |  | 99.9% | 99.8% | > 100 µM | 60 µM |  |  |  |
| Cc1cc(C(=O)N[C@@H](Cc2cccc3ccccc23)C(=O)N[C@@H](CC(C)C)C(=O)NC(C=O)C[C@@H]2CCCNC2=O)no1 (stereo partly shown) |  |  |  |  |  | 8.07 | 0.0214 µM | > 100 µM |
